Key:
Assay type in all cases: functional, cell-based
MCF7 = test: Antiproliferative activity against human MCF7 cells assessed as inhibition of cell proliferation incubated for 48 hrs by MTT assay; conditions: MCF7, 48 h
MDA-MB-231 = test: Antiproliferative activity against human MDA-MB-231 cells assessed as inhibition of cell proliferation incubated for 48 hrs by MTT assay; conditions: MDA-MB-231, 48 h
HeLa = test: Antiproliferative activity against human HeLa cells assessed as inhibition of cell proliferation incubated for 48 hrs by MTT assay

Compound	IC50 (MCF7) [µM]	IC50 (MDA-MB-231) [µM]	IC50 (HeLa) [µM]
C=C(C)[C@@H]1CC[C@]2(C(=O)OC)CC[C@]3(C)[C@H](CC[C@@H]4[C@@]5(C)CC[C@H](OC(=O)CCl)C(C)(C)[C@@H]5CC[C@]43C)[C@@H]12	> 75	> 75	> 75
C=C(C)[C@@H]1CC[C@]2(C(=O)O)CC[C@]3(C)[C@H](CC[C@@H]4[C@@]5(C)CC[C@H](OC(=O)N6CCN(C(=O)C(F)(F)Cl)CC6)C(C)(C)[C@@H]5CC[C@]43C)[C@@H]12	30.7	26.3	31.3
C=C(C)[C@@H]1CC[C@]2(C(=O)O)CC[C@]3(C)[C@H](CC[C@@H]4[C@@]5(C)CC[C@H](OC(=O)CCl)C(C)(C)[C@@H]5CC[C@]43C)[C@@H]12	16.2	17.6	15.3
C=CC(=O)O[C@H]1CC[C@]2(C)[C@H]3CC[C@@H]4[C@H]5[C@H](C(=C)C)CC[C@]5(C(=O)O)CC[C@@]4(C)[C@]3(C)CC[C@H]2C1(C)C	35.3	30.9	33.5
C=C(C)[C@@H]1CC[C@]2(C(=O)N3CCN(C)CC3)CC[C@]3(C)[C@H](CC[C@@H]4[C@@]5(C)CC[C@H](OC(=O)N6CCN(C(=O)CCl)CC6)C(C)(C)[C@@H]5CC[C@]43C)[C@@H]12	20.7	25.6	21.4
C=C(C)[C@@H]1CC[C@]2(C(=O)OCc3ccccc3)CC[C@]3(C)[C@H](CC[C@@H]4[C@@]5(C)CC[C@H](OC(=O)NC(=O)CCl)C(C)(C)[C@@H]5CC[C@]43C)[C@@H]12	> 150	> 150	> 150
C=C(C)[C@@H]1CC[C@]2(C(=O)N3CCN(C(=O)CCl)CC3)CC[C@]3(C)[C@H](CC[C@@H]4[C@@]5(C)CCC(=O)C(C)(C)[C@@H]5CC[C@]43C)[C@@H]12	2.52		2.01
C=C(C)[C@@H]1CC[C@]2(C(=O)O)CC[C@]3(C)[C@H](CC[C@@H]4[C@@]5(C)CC[C@H](OC(=O)C(Cl)Cl)C(C)(C)[C@@H]5CC[C@]43C)[C@@H]12	51.5	35.7	66.2
C=C(C)[C@@H]1CC[C@]2(C(=O)OCc3ccccc3)CC[C@]3(C)[C@H](CC[C@@H]4[C@@]5(C)CC[C@H](OC(=O)N6CCN(C(=O)CCl)CC6)C(C)(C)[C@@H]5CC[C@]43C)[C@@H]12	> 100	> 100	> 100
C=C(C)[C@@H]1CC[C@]2(C(=O)O)CC[C@]3(C)[C@H](CC[C@@H]4[C@@]5(C)CC[C@H](OC(=O)NCCNC(=O)CCl)C(C)(C)[C@@H]5CC[C@]43C)[C@@H]12	6.81	9.64	8.73
C=C(C)[C@@H]1CC[C@]2(C(=O)O)CC[C@]3(C)[C@H](CC[C@@H]4[C@@]5(C)CC[C@H](OC(=O)NCCCCNC(=O)CCl)C(C)(C)[C@@H]5CC[C@]43C)[C@@H]12	7.24	8.94	8.69
C=C(C)[C@@H]1CC[C@]2(C(=O)OCc3ccccc3)CC[C@]3(C)[C@H](CC[C@@H]4[C@@]5(C)CC[C@@H](OC(=O)CCl)C(C)(C)[C@@H]5CC[C@]43C)[C@@H]12	> 75		> 75
C=C(C)[C@@H]1CC[C@]2(C(=O)O)CC[C@]3(C)[C@H](CC[C@@H]4[C@@]5(C)CC[C@H](OC(C)=O)C(C)(C)[C@@H]5CC[C@]43C)[C@@H]12	43.6	35	32.1
C=C(C)[C@@H]1CC[C@]2(C(=O)O)CC[C@]3(C)[C@H](CC[C@@H]4[C@@]5(C)CC[C@H](OC(=O)CC)C(C)(C)[C@@H]5CC[C@]43C)[C@@H]12	45.1	30.9	39.4
C=CCNC(=O)[C@]12CC[C@@H](C(=C)C)[C@@H]1[C@H]1CC[C@@H]3[C@@]4(C)CC[C@H](OC(=O)N5CCN(C(=O)CCl)CC5)C(C)(C)[C@@H]4CC[C@@]3(C)[C@]1(C)CC2	16.7	18	17.2
C=C(C)[C@@H]1CC[C@]2(C(=O)O)CC[C@]3(C)[C@H](CC[C@@H]4[C@@]5(C)CC[C@@H](OC(=O)CCl)C(C)(C)[C@@H]5CC[C@]43C)[C@@H]12	17.1		16.9
C=C(C)[C@@H]1CC[C@]2(C(=O)N3CCN(C(C)=O)CC3)CC[C@]3(C)[C@H](CC[C@@H]4[C@@]5(C)CCC(=O)C(C)(C)[C@@H]5CC[C@]43C)[C@@H]12	29.9	36.3	30
C=C(C)[C@@H]1CC[C@]2(C(=O)O)CC[C@]3(C)[C@H](CC[C@@H]4[C@@]5(C)CC[C@H](OC(=O)CBr)C(C)(C)[C@@H]5CC[C@]43C)[C@@H]12	17.5	18.6	18.7
C=C(C)[C@@H]1CC[C@]2(C(=O)N3CCNCC3)CC[C@]3(C)[C@H](CC[C@@H]4[C@@]5(C)CCC(=O)C(C)(C)[C@@H]5CC[C@]43C)[C@@H]12	3.94	3	3.04
C=C(C)[C@@H]1CC[C@]2(C(=O)O)CC[C@]3(C)[C@H](CC[C@@H]4[C@@]5(C)CC[C@H](OC(=O)NCCCNC(=O)CCl)C(C)(C)[C@@H]5CC[C@]43C)[C@@H]12	7.25	8.48	7.34
C=C(C)[C@@H]1CC[C@]2(C(=O)O)CC[C@]3(C)[C@H](CC[C@@H]4[C@@]5(C)CC[C@H](O)C(C)(C)[C@@H]5CC[C@]43C)[C@@H]12 [BETULINIC ACID]	40.8	66	51.3
C=C(C)[C@@H]1CC[C@]2(C(=O)OCc3ccccc3)CC[C@]3(C)[C@H](CC[C@@H]4[C@@]5(C)CC[C@H](OC(=O)CCl)C(C)(C)[C@@H]5CC[C@]43C)[C@@H]12	> 75	> 75	> 75
C=C(C)[C@@H]1CC[C@]2(C(=O)N3CCN(C(=O)CCl)CC3)CC[C@]3(C)[C@H](CC[C@@H]4[C@@]5(C)CC[C@H](OC(=O)Nc6ccccc6)C(C)(C)[C@@H]5CC[C@]43C)[C@@H]12	> 100	> 100	> 100

Reference: ChEMBL document CHEMBL6114952, “Synthesis and antitumor effects of novel betulinic acid derivatives bearing electrophilic moieties” (Bioorg Med Chem, 2025)
